Patent US8592403B2, “Diazepine and diazocane compounds as MC4 agonists” (Pfizer Limited, priority 2008, dated 2013)

Key:
human MC3 receptors = molecular target: T1, human MC3 receptors (Homo sapiens, UniProt P41968); assay: In vitro agonist potency (EC50) at melanocortin receptor type 3, cAMP in recombinant cell line; format: cell-based
T1 construct: stably transfected with full length cDNA encoding human MC1 or MC3 receptors; expressed in transfected cells
Protocol: Measurement of In Vitro Agonist Potency (EC50) of Compounds Against Melanocortin Receptors Type 1 and 3 (MC1 and MC3).
Activation of melanocortin (MC) receptors by agonists results in activation of intracellular adenylate cyclase enzymes that synthesise the second messenger signalling molecule, adenosine 3′,5′-cyclic monophosphate (cAMP). Changes in cAMP levels following treatment of recombinant MC1 and MC3 cell lines with test compound were measured and an MC1 and MC3 potency estimate (EC50) calculated as follows: […]
Human embryonic kidney (HEK) or Chinese hamster ovary cell lines stably transfected with full length cDNA encoding human MC1 or MC3 receptors, respectively, were established using standard molecular biology methods. Test compounds were dissolved in dimethyl sulfoxide (DMSO) at 4 mM. 11 point half log unit increment dilution series of test compound, typically starting at 50 uM were prepared in a buffer comprised of phosphate buffered saline (PBS), 2.5% DMSO and 0.05% pluronic F-127 surfactant. Freshly cultured cells at 80-90% confluence were harvested and re-suspended in Dulbecco's Modified Eagle's Medium (DMEM). Cells (10,000 for MC3, 20,000 for MC1) were added to the test compound dilution series in a 384 well assay plate and incubated for 1 hour at 37° C. The relative cAMP concentration in each well was then measured using a β-galactosidase enzyme fragment complementation method purchased in kit form as the Discoverx cAMP II kit from GE Healthcare/Amersham Biosciences UK. In the case of MC1,3-Isobutyl-1-methylxanthine (IBMX) at a concentration of 750 μM was included in DMEM as the cells were re-suspended for assay. […] Sigmoidal curves were fitted to plots of log10 inhibitor concentration vs percent effect using a custom made software application called SIGHTS and EC50 estimates determined by the software as the concentration of test compound giving an effect half way between the bottom and top asymptotes of the sigmoidal dose response curve. Each experiment included an EC50 determination for alpha melanocyte stimulating hormone, which was used as a standard to track assay consistency and allow fair comparison between EC50 estimates obtained in different experiments.

MC4 receptor (MC4R) = molecular target: T2, MC4 receptor (MC4R) (Homo sapiens, UniProt P32245); assay: Nle4, D-Phe7-α-MSH inhibition at the MC4 receptor (competition binding, SPA, CHO-CRE MC4R membranes)
T2 construct: expressed in transfected cells; host or cells: CHO-CRE MC4R cells (membranes)
T2 sequence (P32245 whole entry): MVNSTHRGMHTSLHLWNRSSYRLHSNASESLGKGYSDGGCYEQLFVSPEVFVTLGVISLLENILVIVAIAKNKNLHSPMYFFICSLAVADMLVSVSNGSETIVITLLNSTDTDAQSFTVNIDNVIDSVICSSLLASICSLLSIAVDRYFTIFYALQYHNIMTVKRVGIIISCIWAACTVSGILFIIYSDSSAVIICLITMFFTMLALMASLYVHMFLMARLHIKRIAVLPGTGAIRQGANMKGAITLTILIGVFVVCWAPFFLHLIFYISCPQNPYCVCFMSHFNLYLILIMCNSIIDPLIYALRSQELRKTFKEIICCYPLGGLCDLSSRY
Outline: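 Competition binding by SPA used CHO-CRE MC4R membranes on WGA beads (0.15 ug membrane/well) with 0.06 nM [125I] Nle4, D-Phe7-α-MSH and 11 half-log competitor concentrations in duplicate. Buffer was 25 mM HEPES pH 7 with MgCl2, CaCl2, Pluronic F68 and protease inhibitors; incubation was 12 hours at room temperature. Non-specific binding was set with 100 nM SHU9119, and Ki was calculated.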

T1 sequence (P41968 whole entry): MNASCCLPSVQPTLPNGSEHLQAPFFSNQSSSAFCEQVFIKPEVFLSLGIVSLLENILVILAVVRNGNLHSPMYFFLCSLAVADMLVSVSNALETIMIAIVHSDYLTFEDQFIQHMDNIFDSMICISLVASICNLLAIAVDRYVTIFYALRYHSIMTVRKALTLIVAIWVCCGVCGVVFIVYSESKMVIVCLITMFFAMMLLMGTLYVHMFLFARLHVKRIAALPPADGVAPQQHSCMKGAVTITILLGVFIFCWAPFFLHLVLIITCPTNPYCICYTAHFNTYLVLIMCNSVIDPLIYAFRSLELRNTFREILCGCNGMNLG

| Compound | EC50 (human MC3 receptors) [nM] | Ki (MC4 receptor (MC4R)) [nM] |
| --- | --- | --- |
| CNC(=O)N1CCN(C(=O)[C@@H]2CN(c3cccnn3)C[C@H]2c2ccc(F)cc2F)CCCC1c1ccccc1 (mixture of isomers) [Example 73] | 544 | 225 |
| CS(=O)(=O)N1CCN(C(=O)[C@@H]2CN(c3ccc(C#N)nn3)C[C@H]2c2ccc(F)cc2F)CCCC1c1ccc(Cl)cc1 (mixture of isomers) [Example 76] | 604 | 344 |
| CS(=O)(=O)N1CCN(C(=O)[C@@H]2CN(c3ccc(=O)[nH]n3)C[C@H]2c2ccc(F)cc2F)CCCC1c1ccc(Cl)cc1 (mixture of isomers) [Example 79] | 1820 | 107 |
| CCCC(=O)N1CCN(C(=O)[C@@H]2CN(c3cccnn3)C[C@H]2c2ccc(F)cc2F)CCCC1c1ccccc1 (mixture of isomers) [Example 101] | 114 | 77.9 |
| CC(=O)N1CCN(C(=O)[C@@H]2CN(c3cccnn3)C[C@H]2c2ccc(F)cc2F)CCCC1c1ccccc1 (mixture of isomers) [Example 103] | 332 | 316 |
| COc1ccc([C@@H]2CN(c3ccc(=O)n(C)n3)C[C@H]2C(=O)N2CCCC(c3ccc(Cl)cc3)N(S(C)(=O)=O)CC2)c(F)c1 (single isomer, unassigned) [Example 117] | 8360 | 33.6 |
| CC(=O)N1CCN(C(=O)[C@@H]2CN(c3ccc4nncn4n3)C[C@H]2c2ccc(Cl)cn2)CCC[C@H]1c1ccc(Cl)cc1 [Example 6, 6-[(3S,4S)-3-{[4-acetyl-5S-(4-chlorophenyl)-1,4-diazocan-1-yl]carbonyl}-4-(5-chloropyridin-2-yl)pyrrolidin-1-yl][1,2,4]triazolo[4,3-b]pyridazine] | 300 | 28.4 |
| CCC(=O)N1CCN(C(=O)[C@@H]2CN(C(C)(C)C)C[C@H]2c2ccc(F)cc2F)CCC[C@H]1c1ccc(Cl)cc1 [Example 10] | 4190 | 300 |
| CC(C)C(=O)N1CCN(C(=O)[C@@H]2CN(C(C)(C)C)C[C@H]2c2ccc(F)cc2F)CCC[C@H]1c1ccc(Cl)cc1 [Example 11] | 3390 | 200 |
| CC(C)(C)N1C[C@@H](C(=O)N2CCC[C@@H](c3ccc(Cl)cc3)N(C(=O)C3CCC3)CC2)[C@H](c2ccc(F)cc2F)C1 [Example 14] | 8590 | 378 |
| CC(C)(C)C(=O)N1CCN(C(=O)[C@@H]2CN(C(C)(C)C)C[C@H]2c2ccc(F)cc2F)CCC[C@H]1c1ccc(Cl)cc1 [Example 15] | 3180 | 144 |
| CC(C)C(=O)N1CCN(C(=O)[C@@H]2CN(C(C)(C)C)C[C@H]2c2ccc(Cl)cn2)CCC[C@H]1c1ccc(Cl)cc1 [Example 20, 1-{[(3S,4S)-1-tert-butyl-4-(5-chloropyridin-2-yl)pyrrolidin-3-yl]carbonyl}-5S-(4-chlorophenyl)-4-isobutyryl-1,4-diazocane] | 1660 | 68.6 |
| COC(=O)N1CCN(C(=O)[C@@H]2CN(c3ccc(=O)n(C)n3)C[C@H]2c2ccc(F)cc2F)CCC[C@@H]1c1ccc(Cl)cc1 [Example 56] | 1220 | 71.1 |
| COC(=O)N1CCN(C(=O)[C@@H]2CN(c3ccc(=O)n(C)n3)C[C@H]2c2ccc(F)cc2F)CCC[C@H]1c1ccc(Cl)cc1 [Example 66, methyl (8S-4-chlorophenyl)-4-{[(3S,4R)-4-(2,4-difluorophenyl)-1-(1-methyl-6-oxo-1,6-dihydropyridazin-3-yl)pyrrolidin-3-yl]carbonyl}-1,4-diazocane-1-carboxylate] | 1220 | 71.1 |
| COc1ccc([C@@H]2CN(c3ccc(C#N)nn3)C[C@H]2C(=O)N2CCC[C@@H](c3ccc(Cl)cc3)N(C(C)=O)CC2)c(F)c1 [Example 67] | 177 | 58.9 |
| COc1ccc([C@@H]2CN(c3ccc(=O)[nH]n3)C[C@H]2C(=O)N2CCC[C@@H](c3ccc(Cl)cc3)N(C(C)=O)CC2)c(F)c1 [Example 68, 6-[(3S,4R)-3-{[4-acetyl-5S-(4-chlorophenyl)-1,4-diazocan-1-yl]carbonyl}-4-(2-fluoro-4-methoxyphenyl)pyrrolidin-1-yl]pyridazin-3(2H)-one] | 728 | 21.7 |
| COc1ccc([C@@H]2CN(C(C)(C)C)C[C@H]2C(=O)N2CCC[C@@H](c3ccc(Cl)cc3)N(C(C)=O)CC2)c(F)c1 [Example 70] | 4040 | 686 |
| CC(=O)N1CCN(C(=O)[C@@H]2CN(c3ccc(C#N)nn3)C[C@H]2c2ccc(Cl)cn2)CCC[C@H]1c1ccc(Cl)cc1 [Example 72] | 88.6 | 71.4 |
| CS(=O)(=O)N1CCN(C(=O)C2CN(c3ccc(=O)[nH]n3)CC2c2ccc(F)cc2F)CCCC1c1ccc(F)cc1 (stereo not shown) [Example 78] | 3320 | 303 |
| COC(=O)N1CCN(C(=O)[C@@H]2CN(c3ccc(=O)[nH]n3)C[C@H]2c2ccc(OC)cc2F)CCC[C@@H]1c1ccc(Cl)cc1 [Example 90, methyl 8R-(4-chlorophenyl)-4-{[(3S,4R)-4-(2-fluoro-4-methoxyphenyl)-1-(6-oxo-1,6-dihydropyridazin-3-yl)pyrrolidin-3-yl]carbonyl}-1,4-diazocane-1-carboxylate] | 456 | 12 |
| COC(=O)N1CCN(C(=O)[C@@H]2CN(C(C)(C)C)C[C@H]2c2ccc(OC)cc2F)CCCC1c1ccc(Cl)cc1 (stereo partly shown) [Example 91] | 7380 | 383 |
| COC(=O)N1CCN(C(=O)[C@@H]2CN(c3ccc(=O)n(C)n3)C[C@H]2c2ccc(OC)cc2F)CCC[C@H]1c1ccc(Cl)cc1 [Example 118] | 8200 | 24.7 |
| COC(=O)N1CCN(C(=O)[C@@H]2CN(c3ccc(=O)n(C)n3)C[C@H]2c2ccc(OC)cc2F)CCC[C@@H]1c1ccc(Cl)cc1 [Example 119, methyl 8R-(4-chlorophenyl)-4-{[(3S,4R)-4-(2-fluoro-4-methoxyphenyl)-1-(1-methyl-6-oxo-1,6-dihydropyridazin-3-yl)pyrrolidin-3-yl]carbonyl}-1,4-diazocane-1-carboxylate] | 11200 | 22.3 |
